Experimental data taken from ChEMBL document CHEMBL1133426, “2-Substituted paullones: CDK1/cyclin B-inhibiting property and in vitro antiproliferative activity” (Bioorg Med Chem Lett, 2000).

Assays:
cells = format: functional; conditions: Homo sapiens
Description: Inhibition of proliferation in NCI panel of 60 human tumor cell lines

HCT-116 = experiment: cells; format: functional; conditions: Homo sapiens
Description: Inhibition of HCT116 colon cancer cell proliferation

SMILES	GI50 (cells) [µM]	GI50 (HCT-116) [µM]
O=C1Cc2c([nH]c3ccc(Br)cc23)-c2ccccc2N1 [KENPAULLONE]	39.8	
O=C1Cc2c([nH]c3ccc(C(F)(F)F)cc23)-c2cc(C#CCO)ccc2N1	12.6	3.16
O=C1Cc2c([nH]c3ccc(C(F)(F)F)cc23)-c2cc(C#CC3(O)CCCCC3)ccc2N1	2	2.51
